In patent publication US6727237B2, “Inhibitors of bacterial NAD synthetase” (priority 1998, dated 2004):

Legend:
[1] = tested on: Staphylococcus epidermitis; experiment: Bacterial growth inhibition screen in LB media (absorbance 595 nm), percent inhibition; details: S. epidermitis
[2] = molecular target: T1, bacterial NAD synthetase enzyme (Bacillus subtilis, UniProt P08164); experiment: biochemical; assay type: biochemical; details: for % Inhibition: compound at 0.2 mM (Table 312B)
T1 sequence (P08164 2-272 limits assumed): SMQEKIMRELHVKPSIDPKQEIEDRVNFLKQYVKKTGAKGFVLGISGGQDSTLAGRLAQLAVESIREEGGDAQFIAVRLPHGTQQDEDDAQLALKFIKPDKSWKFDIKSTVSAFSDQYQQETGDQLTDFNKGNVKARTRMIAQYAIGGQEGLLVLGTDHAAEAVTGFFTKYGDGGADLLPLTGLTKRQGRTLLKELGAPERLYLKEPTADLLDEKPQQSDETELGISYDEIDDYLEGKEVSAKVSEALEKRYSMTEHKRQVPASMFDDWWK

| Compound | % Inhibition ([1]; concentration screened 10 uM) [%] | % Inhibition ([1]; concentration screened 100 uM) [%] | also measured |
| --- | --- | --- | --- |
| COC(=O)c1ccc2c(ccn2CCC[n+]2cccc(C(=O)OC)c2)c1 [Compound 171] | 15.33 |  |  |
| O=C([O-])c1ccc[n+](CCCn2c(C(=O)O)cc3ccccc32)c1 [Compound 191] | 46.32 |  |  |
| C[n+]1cccc(C(=O)OCCCCCCCCCc2cc3cc([N+](=O)[O-])ccc3[nH]2)c1 [Compound 281] | 84.23 |  |  |
| c1ccc(Oc2ccc3[nH]c(CCCCC[n+]4ccccc4)cc3c2)cc1 [Compound 350] | 7.59 |  |  |
| c1ccc2[nH]c(CCC[n+]3cccc4ccccc43)cc2c1 [Compound 390] | 5.92 |  |  |
| c1ccc2[nH]c(CCCC[n+]3cccc4ccccc43)cc2c1 [Compound 391] | 5.29 |  |  |
| FC(F)(F)c1ccc2cc(CCCCCCC[n+]3cccc4ccccc43)[nH]c2c1 [Compound 400] | 5.50 |  |  |
| Fc1cc(F)c2[nH]c(CCCCCCC[n+]3cccc4ccccc43)cc2c1 [Compound 412] | 7.73 |  |  |
| O=[N+]([O-])c1cc([N+](=O)[O-])c2[nH]c(CCCCC[n+]3cccc4ccccc43)cc2c1 [Compound 416] | 2.09 |  |  |
| c1ccc(Oc2ccc3[nH]c(CCC[n+]4cccc5ccccc54)cc3c2)cc1 [Compound 456] | 3.69 |  |  |
| c1ccc(Oc2ccc3[nH]c(CCCCCC[n+]4cccc5ccccc54)cc3c2)cc1 [Compound 459] | 16.09 |  |  |
| FC(F)(F)c1ccc2[nH]c(CCCCCC[n+]3cccc4ccccc43)cc2c1 [Compound 471] | 14.07 |  |  |
| CN(C)c1cccc(C(=O)OCCCCc2cc3cc(C(F)(F)F)ccc3[nH]2)c1 [Compound 606] |  | 9.17 |  |
| CN(C)c1ccc(C(=O)OCCCCc2cc3cc(C(F)(F)F)ccc3[nH]2)cc1 [Compound 609] |  | 7.35 |  |
| CN(C)c1ccc(C(=O)OCCCCCCCc2cc3cc(C(F)(F)F)ccc3[nH]2)cc1 [Compound 610] | 33.51 |  |  |
| O=C(OCCCCc1cc2cc(C(F)(F)F)ccc2[nH]1)c1ccccc1-c1ccccc1 [Compound 612] |  | 10.24 |  |
| O=C(OCCCCCCCc1cc2cc(C(F)(F)F)ccc2[nH]1)c1ccccc1-c1ccccc1 [Compound 613] | 1.36 |  |  |
| CN(C)c1cccc(C(=O)OCCCCc2cc3cc(Oc4ccccc4)ccc3[nH]2)c1 [Compound 615] |  | 11.81 |  |
| CN(C)c1cccc(C(=O)OCCCCCCCc2cc3cc(Oc4ccccc4)ccc3[nH]2)c1 [Compound 616] | 5.59 |  |  |
| CN(C)c1ccc(C(=O)OCCCCc2cc3cc(Oc4ccccc4)ccc3[nH]2)cc1 [Compound 618] |  | 11.06 |  |
| O=C(OCCCCc1cc2cc(Oc3ccccc3)ccc2[nH]1)c1ccccc1-c1ccccc1 [Compound 621] |  | 11.75 |  |
| O=C(OCCCCCCCc1cc2cc(Oc3ccccc3)ccc2[nH]1)c1ccccc1-c1ccccc1 [Compound 622] | 7.97 |  |  |
| O=C(OCCCCCCCCc1cc2cc(Oc3ccccc3)ccc2[nH]1)c1ccccc1-c1ccccc1 [Compound 623] |  | 34.17 |  |
| CC(C)c1ccc2[nH]c(CCCCOC(=O)c3cccc(N(C)C)c3)cc2c1 [Compound 624] |  | 19.16 |  |
| CC(C)c1ccc2[nH]c(CCCCCCCOC(=O)c3cccc(N(C)C)c3)cc2c1 [Compound 625] | 7.77 |  |  |

| Compound | % Inhibition ([1]; concentration screened 10 uM) [%] | % Inhibition ([1]; concentration screened 100 uM) [%] | also measured |
| --- | --- | --- | --- |
| CC(C)c1ccc2[nH]c(CCCCCCCCOC(=O)c3cccc(N(C)C)c3)cc2c1 [Compound 626] |  | 14.26 |  |
| CC(C)c1ccc2[nH]c(CCCCCCCCOC(=O)c3ccc(N(C)C)cc3)cc2c1 [Compound 629] |  | 6.66 |  |
| CC(C)c1ccc2[nH]c(CCCCCCCOC(=O)c3ccccc3-c3ccccc3)cc2c1 [Compound 631] | 12.19 |  |  |
| CC(C)c1ccc2[nH]c(CCCCCCCCOC(=O)c3ccccc3-c3ccccc3)cc2c1 [Compound 632] |  | 22.42 |  |
| CC(=O)c1ccc2[nH]c(CCCCOC(=O)c3cccc(N(C)C)c3)cc2c1 [Compound 633] |  | 5.53 |  |
| CC(=O)c1ccc2[nH]c(CCCCCCCOC(=O)c3cccc(N(C)C)c3)cc2c1 [Compound 634] | 10.08 |  |  |
| CC(=O)c1ccc2[nH]c(CCCCCCCCOC(=O)c3cccc(N(C)C)c3)cc2c1 [Compound 635] |  | 7.47 |  |
| CC(=O)c1ccc2[nH]c(CCCCOC(=O)c3ccccc3-c3ccccc3)cc2c1 [Compound 639] |  | 7.41 |  |
| CC(=O)c1ccc2[nH]c(CCCCCCCCOC(=O)c3ccccc3-c3ccccc3)cc2c1 [Compound 641] |  | 8.10 |  |
| CN(C)c1cccc(C(=O)OCCCCc2cc3cc(C(=O)c4ccccc4)ccc3[nH]2)c1 [Compound 642] |  | 8.86 |  |
| CN(C)c1cccc(C(=O)OCCCCCCCc2cc3cc(C(=O)c4ccccc4)ccc3[nH]2)c1 [Compound 643] | 15.46 |  |  |
| CN(C)c1ccc(C(=O)OCCCCCCCc2cc3cc(C(=O)c4ccccc4)ccc3[nH]2)cc1 [Compound 646] | 1.09 |  |  |
| CN(C)c1ccc(C(=O)OCCCCCCCCc2cc3cc(C(=O)c4ccccc4)ccc3[nH]2)cc1 [Compound 647] |  | 13.38 |  |
| O=C(c1ccccc1)c1ccc2[nH]c(CCCCCCCCOC(=O)c3ccccc3-c3ccccc3)cc2c1 [Compound 650] |  | 7.73 |  |
| O=C(OCCCCc1cc2cc(C(F)(F)F)ccc2[nH]1)C(c1ccccc1)c1ccccc1 [Compound 651] |  | 13.51 |  |
| O=C(OCCCCCCCc1cc2cc(C(F)(F)F)ccc2[nH]1)C(c1ccccc1)c1ccccc1 [Compound 652] | 2.52 |  |  |
| O=C(OCCCCCCCc1cc2cc(C(F)(F)F)ccc2[nH]1)c1cccnc1 [Compound 655] | 11.51 |  |  |
| O=C(OCCCCCCCCc1cc2cc(C(F)(F)F)ccc2[nH]1)c1cccnc1 [Compound 656] | 2.59 |  |  |
| O=C(OCCCCc1cc2cc(Oc3ccccc3)ccc2[nH]1)C(c1ccccc1)c1ccccc1 [Compound 657] |  | 37.12 |  |
| O=C(OCCCCCCCc1cc2cc(Oc3ccccc3)ccc2[nH]1)C(c1ccccc1)c1ccccc1 [Compound 658] | 1.43 |  |  |
| O=C(OCCCCCCCc1cc2cc(Oc3ccccc3)ccc2[nH]1)c1cccnc1 [Compound 661] | 39.31 |  |  |
| CC(C)c1ccc2[nH]c(CCCCCCCOC(=O)C(c3ccccc3)c3ccccc3)cc2c1 [Compound 664] | 3.88 |  |  |
| CC(C)c1ccc2[nH]c(CCCCCCCCOC(=O)C(c3ccccc3)c3ccccc3)cc2c1 [Compound 665] |  | 12.75 |  |
| CC(C)c1ccc2[nH]c(CCCCCCCCOC(=O)c3cccnc3)cc2c1 [Compound 668] | 3.07 |  |  |
| CC(=O)c1ccc2[nH]c(CCCCOC(=O)C(c3ccccc3)c3ccccc3)cc2c1 [Compound 669] |  | 11.24 |  |

| Compound | % Inhibition ([1]; concentration screened 10 uM) [%] | % Inhibition ([1]; concentration screened 100 uM) [%] | also measured |
| --- | --- | --- | --- |
| CC(=O)c1ccc2[nH]c(CCCCCCCCOC(=O)C(c3ccccc3)c3ccccc3)cc2c1 [Compound 671] |  | 5.72 |  |
| CC(=O)c1ccc2[nH]c(CCCCCCCCOC(=O)c3cccnc3)cc2c1 [Compound 674] | 7.70 |  |  |
| O=C(c1ccccc1)c1ccc2[nH]c(CCCCOC(=O)C(c3ccccc3)c3ccccc3)cc2c1 [Compound 675] |  | 11.37 |  |
| O=C(OCCCCCCCCc1cc2cc(C(=O)c3ccccc3)ccc2[nH]1)c1cccnc1 [Compound 680] | 22.48 |  |  |
| O=C(OCCCCc1cc2ccc(C(F)(F)F)cc2[nH]1)c1cccnc1 [Compound 681] | 4.22 |  |  |
| O=C(OCCCCCCCCc1cc2ccc(C(F)(F)F)cc2[nH]1)c1cccnc1 [Compound 683] | 9.26 |  |  |
| O=C(OCCCCc1cc2cc(Oc3ccccc3)ccc2[nH]1)c1cccnc1 [Compound 684] | 10.83 |  |  |
| C[N+](C)(C)c1ccc(CC(=O)OCCCCCCCCn2ccc3cc(NC(=O)c4ccccc4)ccc32)cc1 [Compound 1104] |  |  | IC50 [2]: 61 µM |
| C[n+]1cccc(C(=O)OCCCCCCCCOc2ccc([N+](=O)[O-])cc2)c1 [compound 1053] |  |  | % Inhibition [2]: 72% |
| C[n+]1cccc(C(=O)OCCCCCCCCOc2ccccc2[N+](=O)[O-])c1 [compound 1055] |  |  | % Inhibition [2]: 46% |
| CC(=O)c1ccccc1OCCCCCCCCOC(=O)c1ccc[n+](C)c1 [compound 1056] |  |  | % Inhibition [2]: 18% |
| COc1cccc(OCCCCCCCCOC(=O)c2ccc[n+](C)c2)c1 [compound 1057] |  |  | % Inhibition [2]: 59% |
| CC(=O)c1ccc(OCCCCCCCCOC(=O)c2ccc[n+](C)c2)cc1 [compound 1058] |  |  | % Inhibition [2]: 18% |
| C[n+]1cccc(C(=O)OCCCCCCCCOc2cccc(OC(=O)c3ccccc3)c2)c1 [compound 1059] |  |  | % Inhibition [2]: 85% |
| C[n+]1cccc(C(=O)OCCCCCCCCOc2ccccc2C(N)=O)c1 [compound 1060] |  |  | % Inhibition [2]: 19% |
| CC(=O)C=Cc1ccc(OCCCCCCCCOC(=O)c2ccc[n+](C)c2)cc1 [compound 1061] |  |  | % Inhibition [2]: 61% |
| C[n+]1cccc(C(=O)OCCCCCCCCOc2ccc(OC(=O)c3ccccc3)cc2)c1 [compound 1062] |  |  | % Inhibition [2]: 18% |
| C[n+]1cccc(C(=O)OCCCCCCCCOc2ccc(C=CC(=O)c3ccccc3)cc2)c1 [compound 1063] |  |  | % Inhibition [2]: 32% |
| C[n+]1cccc(C(=O)OCCCOc2ccccc2C=CC(=O)c2ccccc2)c1 [compound 1066] |  |  | inhibition at 200 µM [2]: 70% |
| CC(=O)c1cccc(OCCCCCCCCOC(=O)c2ccc[n+](C)c2)c1 [compound 1069] |  |  | % Inhibition [2]: 36% |
| C[n+]1cccc(C(=O)OCCCCCCCCOc2ccc(N3C(=O)c4ccccc4C3=O)cc2)c1 [compound 1071] |  |  | % Inhibition [2]: 55% |
| COC(=O)c1cc2cc(OCc3ccccc3)ccc2n1CCCCCCCOC(=O)Cc1ccc([N+](C)(C)C)cc1 [compound 1105] |  |  | % Inhibition [2]: 167% |
| C[n+]1cccc(C(=O)OCCCCCCCCOc2ccccc2C(=O)Nc2ccccc2)c1 [compound 3054] |  |  | % Inhibition [2]: 86% |
